Measurements from the OPERA property sets (Mansouri et al. 2018).

Structure (SMILES)	ready biodegradability	boiling point [°C]	log10 vapour pressure (mmHg)	melting point [°C]	log10 Koc (L/kg)	log10 Koa	log10 Henry constant (atm·m³/mol)
CCCCCCCCCCCC[N+](C)(C)CC(=O)[O-]	readily biodegradable	–	–	–	–	–	–
C1=CCC2CC2C1 (stereo not given)	–	125	1.36	–	–	–	–
Cc1ccc(C(=O)O)c(O)c1	–	–	–	177	–	–	–
Fc1cccc(C(F)(F)F)c1	–	102	–	-81.5	–	–	–
CCCCCCCCC(=O)OCC	–	227	–	-36.7	–	–	–
CCC=CC(C)=O	–	140	–	–	–	–	–
CCC(Nc1ncnc(C)c1Cl)c1ccc(OC(F)F)cc1 (stereo not given)	–	–	-5.62	47.3	–	–	–
CCOC(=O)CC(C(C)=O)C(=O)OCC (stereo not given)	–	255	–	–	–	–	–
C=CCN(CC=C)C(=O)CCl	–	–	-2.03	–	1.3	–	–
COC(=O)C1(S(=O)(=O)c2ccc(Cl)cc2)CC1	–	–	–	116	–	–	–
C1=CC2C3C=CC(C3)C2C1 (stereo not given)	not readily biodegradable	170	0.361	15.5	–	–	–
Clc1cc2oc3cc(Cl)c(Cl)c(Cl)c3c2c(Cl)c1Cl	–	–	–	–	–	10.9	–
CCCCOCC	–	92.3	1.71	-124	–	–	–
O=C(NC(=O)c1c(F)cccc1F)Nc1cc(Cl)c(OC(F)(F)C(F)F)c(Cl)c1	–	–	–	204	–	–	–
NC(N)=O	readily biodegradable	–	-4.92	–	0.15	–	–
CC(C)CCSSCCC(C)C	–	247	–	–	–	–	–
O=C(O)/C=C/c1c[nH]cn1	–	–	–	225	–	–	–
CC(=O)c1ccc2ccccc2c1	–	302	-3.21	56	2.93	–	–
Cc1nnc(C)s1	–	202	–	65	–	–	–
O=C(OCCO)c1ccccc1	–	–	–	45	–	–	–
N=C(N)NC(N)=O	–	–	–	105	–	–	–

Structure (SMILES)	ready biodegradability	boiling point [°C]	log10 vapour pressure (mmHg)	melting point [°C]	log10 Koc (L/kg)	log10 Koa	log10 Henry constant (atm·m³/mol)
C(CCOCC1CO1)COCC1CO1 (stereo not given)	not readily biodegradable	266	–	–	–	–	–
O=C(O)CNC(=O)OCc1ccccc1	–	–	–	121	–	–	–
CCCC(O)/C=C/C=C/C=C/C#CC#CCCCO (stereo not given)	–	–	–	54	–	–	–
c1ccc(N=NNc2ccccc2)cc1	–	–	-4.72	98	–	–	–
C1COCO1	–	78	1.9	-95	–	–	-4.61
c1ccc(N2CCCCC2)cc1	–	258	–	4.7	–	–	–
CCOCC(C)C	–	81	–	–	–	–	–
Cc1cc2c(cc1C)C(=O)c1ccccc1C2=O	–	–	–	211	–	–	–
Brc1ccc(Oc2ccc(Br)cc2)cc1	–	339	–	60.5	–	8.64	–
Clc1cc2oc3ccc(Cl)c(Cl)c3c2c(Cl)c1Cl	–	–	–	–	–	10.5	–
COC(=O)CC(C)C	–	116	1.15	–	–	–	–
Clc1ccc(-c2ccccc2Cl)cc1	–	–	-2.68	–	4.34	7.4	-3.64
O=C(Nc1ccc(Br)cc1)c1cc(Br)cc(Br)c1O	–	–	–	227	–	–	–
CCOP(=O)(OCC)ON1C(=O)c2cccc3cccc(c23)C1=O	–	–	–	177	–	–	–
N#Cc1ccncc1	–	214	–	79	–	–	-6.03
BrCC(Br)CBr	–	222	–	16.9	–	–	–
COc1ccc(C(=O)O)c(OC)c1	–	–	–	109	–	–	–
Cc1coc2ccccc12	–	197	–	–	–	–	–
COc1nc(C)nc(NC(=O)NS(=O)(=O)c2ccccc2OCCCl)n1	–	–	–	186	2.02	–	–
Cc1ccc(Oc2ccc(C)cc2)cc1	–	285	–	51	–	–	–
CCC(=O)Oc1ccc(/C(CC)=C(\CC)c2ccc(OC(=O)CC)cc2)cc1	–	–	–	104	–	–	–

Structure (SMILES)	ready biodegradability	boiling point [°C]	log10 vapour pressure (mmHg)	melting point [°C]	log10 Koc (L/kg)	log10 Koa	log10 Henry constant (atm·m³/mol)
C=Cc1c(Cl)cccc1Cl	–	–	–	89	–	–	–
CCCCOCC1CO1 (stereo not given)	readily biodegradable	165	0.505	–	–	–	–
O[C@@H]1[C@@H](O)[C@@H]2OC[C@@H](O2)[C@H]1O	–	–	-7.12	183	–	–	–
Clc1cccc2nccc(Cl)c12	–	–	–	118	–	–	–
NNS(=O)(=O)c1ccccc1	–	–	–	102	–	–	–
CC1CCCC(O)C1 (stereo not given)	–	163	-0.32	–	–	–	-5.44
Cc1ccc(C)c(Cl)c1	not readily biodegradable	187	–	1.6	–	–	–
Cc1cc(N(CCO)CCO)ccc1N=Nc1ccc([N+](=O)[O-])cc1Cl	–	–	–	192	–	–	–
CC(O)(CCl)CCl	–	174	–	–	–	–	–
CCCC(C)I (stereo not given)	–	150	1.04	-50	–	–	–
CCCCCCCCCCCCCCCCCC(C)=O	–	–	–	57	–	–	–
[C-]#[N+]c1ccccc1	–	–	0.381	–	–	–	–
C=C(C)CCCC	–	92	1.78	-103	–	–	–
CN1CCN(C(=O)OC2C3=C(SCCS3)C(=O)N2c2ccc3ccc(Cl)nc3n2)CC1 (stereo not given)	–	–	–	280	–	–	–
c1ccc(C2OCCCO2)cc1	–	253	–	41	–	–	–
CCC(CC(C)C)C(C)C (stereo not given)	–	154	–	–	–	–	–
CCCC(=O)Nc1ccc(OCC(O)CNC(C)C)c(C(C)=O)c1 (stereo not given)	–	–	–	121	–	–	–
O=C1CCCCN1	–	256	-2.36	39.5	–	–	–
Brc1cn[nH]c1	–	255	–	94.5	–	–	–
CC(Oc1ccccc1)C(=O)Cl (stereo not given)	–	147	–	–	–	–	–
